Molecular target: MASP-2 CCP2-SP (Homo sapiens (Human), UniProt O00187)
Test: MASP-2 co-crystallization, X-ray crystallography and structure analysis (H-bonds, van der Waals contacts);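 on Ligand-pharmacophore element distance, pharmacophore element C2: distance from averaged pharmacophore element to bound ligand; missing value means element absent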;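 on Ligand-pharmacophore element distance, pharmacophore element C3: distance from averaged pharmacophore element to bound ligand; missing value means element absent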;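 on Ligand-pharmacophore element distance, pharmacophore element C4: distance from averaged pharmacophore element to bound ligand; missing value means element absent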;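 on Ligand-pharmacophore element distance, pharmacophore element C5: distance from averaged pharmacophore element to bound ligand; missing value means element absent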
Parameters: van der Waals contact distance, MASP-2 HIS 483 atom CD2 / van der Waals contact distance, MASP-2 HIS 483 atom NE2 / van der Waals contact distance, SER 654 C to compound atom / van der Waals contact distance, SER 654 O to compound atom / van der Waals contact distance, TRP 655 C to compound atom / van der Waals contact distance, MASP-2 GLY 528 atom CA / van der Waals contact distance TRP 655 atom CZ3 / van der Waals contact distance TRP 655 atom N / van der Waals contact distance TRP 655 atom CE3 / van der Waals contact distance GLY 656 atom C / van der Waals contact distance GLY 656 atom CA / van der Waals contact distance GLY 656 atom O / van der Waals contact distance, MASP-2 TYR 607 atom CD1 / van der Waals contact distance, MASP-2 PRO 606 atom O / d(C3,CA1) / d(CA1,N1)2 / d(H4,O1) / d(H4,O2) / d(O1,O2) / d(CA1,O2) / d(CA6,O1) / d(CA6,O2) / d(CA1,C5) / d(O2,H3) / d(N2,C2) / d(CA5,N2) / d(N2,C4) / d(N2,C6) / d(N2,CA3) / d(N2,O3) / d(O4,H2): unit not given beside the values
Settings: for H-bond distance to MASP-2 ASP 627 atom OD2: ASP 627 OD2; for H-bond distance to MASP-2 GLY 656 atom N: GLY 656 N; for H-bond distance to MASP-2 SER 657 atom O: SER 657 O; for Pharmacophore protein distance to MET_658 (first MET_658 column): 6th residue column; for Pharmacophore protein distance to MET_658 (second MET_658 column): 9th residue column
Method in brief: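 E. coli-expressed CCP2-SP (±6His); apo crystals soaked 1–2× in inhibitor-containing crystallization solution; optional 20% glycerol cryoprotection, LN2 flash-cool; synchrotron data at 1.0 wavelength; MR using 1Q3X portions, partial refinement; single pose analysed when several seen.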

[1] = Table A5-2 pharmacophore distance, S3/S4 region
[2] = Table A7-1, between pharmacophore elements of the bound compound
[3] = Table A8-6, nearest protein atom in cell to the left
[4] = Table A5-1 pharmacophore: distance between elements, S2/S1 region

Sequence of MASP-2 CCP2-SP (O00187 445-686): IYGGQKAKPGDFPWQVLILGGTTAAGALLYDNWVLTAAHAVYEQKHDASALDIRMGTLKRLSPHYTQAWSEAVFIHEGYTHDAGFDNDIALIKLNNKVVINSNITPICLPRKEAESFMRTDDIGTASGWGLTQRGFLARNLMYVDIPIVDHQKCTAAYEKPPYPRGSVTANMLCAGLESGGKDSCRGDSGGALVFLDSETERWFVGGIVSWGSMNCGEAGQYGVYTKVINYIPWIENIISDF
Sequence of MASP-2 CCP2-SP (O00187 364-432 partner): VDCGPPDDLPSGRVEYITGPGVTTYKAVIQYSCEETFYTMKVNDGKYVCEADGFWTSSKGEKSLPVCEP

Structure (SMILES): C[C@H](NC(=O)[C@H]1C[C@@H](c2ccccc2)CN1)C(=O)NCc1ccc(C(=N)N)cc1 [compound 1037]
- H-bond distance to MASP-2 ASP 627 atom OD2 (Table A1 (H-Bonds)): 2.91
- H-bond distance to MASP-2 GLY 656 atom N (Table A1 (H-Bonds)): 3.35
- H-bond distance to MASP-2 SER 657 atom O (Table A1 (H-Bonds)): 2.85
- van der Waals contact distance, MASP-2 PHE 529 atom CE1 (Table A2-3): 3.27
- van der Waals contact distance, MASP-2 PHE 529 atom CE2 (Table A2-3): 3.73
- van der Waals contact distance, MASP-2 PRO 606 atom C (Table A2-4): 3.89
- van der Waals contact distance, MASP-2 PRO 606 atom O (Table A2-4): 3.73
- van der Waals contact distance GLY 656 atom C (Table A2-13, MASP-2 GLY 656 C): 3.7
- van der Waals contact distance TRP 655 atom O (Table A2-13, MASP-2 TRP 655 O): 3.25
- van der Waals contact distance GLY 656 atom N (Table A2-14, MASP-2 GLY 656 N): 3.86
- van der Waals contact distance SER 657 atom C (Table A2-14, MASP-2 SER 657 C, columns c12-c13 (inferred)): 3.73
- Ligand-pharmacophore element distance, pharmacophore element C2 (Table A4-1): 0
- Ligand-pharmacophore element distance, pharmacophore element C3 (Table A4-1): 0
- Ligand-pharmacophore element distance, pharmacophore element C4 (Table A4-1): 0
- Ligand-pharmacophore element distance, pharmacophore element C5 (Table A4-1): 0
- Ligand-pharmacophore element distance, pharmacophore element C6 (Table A4-1): 0
- Ligand-pharmacophore element distance, pharmacophore element C7 (Table A4-1): 0
- Ligand-pharmacophore element distance, pharmacophore element CA1 (Table A4-1): 0.27
- Ligand-pharmacophore element distance, pharmacophore element CA2 (Table A4-1): 0
- Ligand-pharmacophore element distance, pharmacophore element CA3 (Table A4-1): 0
- Ligand-pharmacophore element distance, pharmacophore element CA4 (Table A4-1): 0
- Ligand-pharmacophore element distance, pharmacophore element CA6 (Table A4-1): 0
- d(O2,H3) [1]: 3.99
- Pharmacophore torsion angle a(H4, O1, O2, H3) [2]: 57.29
- Pharmacophore torsion angle a(N1, CA1, O2, H4) [2]: −92.49
- Pharmacophore protein distance to MET_658 (first MET_658 column) [3]: 2.38
- Pharmacophore protein distance to MET_658 (second MET_658 column) [3]: 3.03
- Pharmacophore protein distance to SER_611 [3]: 2.19

Structure (SMILES): C[C@H](NC(=O)[C@@H](CCc1ccccc1)NCc1ccc(N2CCOCC2)cc1)C(=O)NCc1ccc(C(=N)N)cc1 [compound 1149]
- H-bond distance to MASP-2 ASP 627 atom OD2 (Table A1 (H-Bonds)): 3.09
- H-bond distance to MASP-2 CYS 660 atom SG (Table A1 (H-Bonds), CYS 660 SG): 3.16
- H-bond distance to MASP-2 GLY 656 atom N (Table A1 (H-Bonds)): 3.24
- H-bond distance to MASP-2 SER 654 atom O (Table A1 (H-Bonds), SER 654 O): 2.7
- H-bond distance to MASP-2 SER 657 atom O (Table A1 (H-Bonds)): 2.75
- H-bond distance to MASP-2 SER 657 atom OG (Table A1 (H-Bonds), SER 657 OG): 3.19
- van der Waals contact distance, MASP-2 ASP 526 atom C (Table A2-1): 3.29
- van der Waals contact distance, MASP-2 ASP 526 atom CA (Table A2-1): 3.87
- van der Waals contact distance, MASP-2 HIS 483 atom CD2 (Table A2-1): 3.81
- van der Waals contact distance, MASP-2 GLY 528 atom N (Table A2-2): 3.4
- van der Waals contact distance, MASP-2 PHE 529 atom CE1 (Table A2-3): 3.68
- van der Waals contact distance, SER 654 C to compound atom (Table A2-11): 3.68
- Ligand-pharmacophore element distance, pharmacophore element C2 (Table A4-1): 0
- Ligand-pharmacophore element distance, pharmacophore element C3 (Table A4-1): 0
- Ligand-pharmacophore element distance, pharmacophore element C4 (Table A4-1): 3.8
- Ligand-pharmacophore element distance, pharmacophore element C5 (Table A4-1): 0
- Ligand-pharmacophore element distance, pharmacophore element C6 (Table A4-1): 0
- Ligand-pharmacophore element distance, pharmacophore element C7 (Table A4-1): 0
- Ligand-pharmacophore element distance, pharmacophore element CA1 (Table A4-1): 0.35
- Ligand-pharmacophore element distance, pharmacophore element CA2 (Table A4-1): 0
- Ligand-pharmacophore element distance, pharmacophore element CA3 (Table A4-1): 0
- Ligand-pharmacophore element distance, pharmacophore element CA4 (Table A4-1): 1.47
- Ligand-pharmacophore element distance, pharmacophore element CA5 (Table A4-1, element CA5): 0
- Ligand-pharmacophore element distance, pharmacophore element CA6 (Table A4-1): 4.96
- d(CA1,N1) [4]: 3.57
- d(CA1,O1) [4]: 5.15
- d(CA1,O2) [4]: 9.42
- d(CA6,O1) [4]: 7.04
- d(CA6,O2) [4]: 8.45
- d(H4,O1) [4]: 5.59
- d(H4,O2) [4]: 8.32
- d(O1,O2) [4]: 8.70
- d(N2,C4) [1]: 7.94
- d(O2,H3) [1]: 5.29
- d(O2,N2) [1]: 4.42
- a(CA1, O1, O2) (Table A6-1 pharmacophore angle): 147.27
- a(O1, CA6, O2) (Table A6-1 pharmacophore angle): 131.55
- a(O1, O2, H4) (Table A6-1 pharmacophore angle): 105.44
- A(N1, CA1, O1) a) (Table A6-1 pharmacophore angle, all compounds with protonatable center N1 except Methyl-amino-pyridine): 168.87
- a(O1, O2, H3) (Table A6-2 pharmacophore angle): 54.88
- a(O1, O2, N2) (Table A6-2 pharmacophore angle): 62.73
- a(O2, N2, C4) (Table A6-2 pharmacophore angle): 154.82
- a(O2, N2, C4) 2 (Table A6-2 pharmacophore angle): 49.80
- Pharmacophore torsion angle a(CA6, O1, H4, O2) [2]: 55.30
- Pharmacophore torsion angle a(H4, O1, O2, H3) [2]: 105.58
- Pharmacophore torsion angle a(H4, O1, O2, N2) [2]: 125.02
- Pharmacophore torsion angle a(N1, CA1, O2, H4) [2]: −109.82
- Pharmacophore torsion angle a(O1, H4, O2, CA1) [2]: −48.11
- Pharmacophore torsion angle a(O1, O2, N2, CA4) (Table A7-2, between pharmacophore elements of the bound compound): 155.91
- Pharmacophore protein distance to MET_658 (first MET_658 column) [3]: 2.55
- Pharmacophore protein distance to MET_658 (second MET_658 column) [3]: 3.25
- Pharmacophore protein distance to GLY_528 [3]: 3.92
- Pharmacophore protein distance to PHE_529 [3]: 2.93
- Pharmacophore protein distance to PRO_608 [3]: 4.39
- Pharmacophore protein distance to SER_611 [3]: 2.96
- Pharmacophore protein distance to TRP_655 (Table A8-6, pharmacophore elements C6, CA3, O3, H1, nearest protein atom in cell to the left): 3.27

— patent publication US12195427B2, “MASP-2 inhibitors and methods of use” (priority 2018, dated 2025)
